Reference: the CheMixHub ionic liquid set

Assay: xn = mol fraction of the nth substance listed

CCCCn1cc[n+](C)c1C.O=S(=O)([N-]S(=O)(=O)C(F)(F)F)C(F)(F)F + COC(=O)OC
viscosity [mPa·s], 101.3 kPa
Conditions	288.15 K	293.15 K	298.15 K	303.15 K	308.15 K	313.15 K
x1 = 0.003134	0.698	0.653	0.611	0.575	0.541	0.511
x1 = 0.003617	0.704	0.658	0.615	0.579	0.544	0.513
x1 = 0.004671	0.717	0.669	0.626	0.588	0.553	0.522
x1 = 0.005144	0.722	0.674	0.63	0.592	0.557	0.525
x1 = 0.007528	0.753	0.701	0.655	0.614	0.578	0.544
x1 = 0.008467	0.763	0.711	0.664	0.622	0.585	0.551
x1 = 0.01016	0.786	0.731	0.682	0.639	0.6	0.564
x1 = 0.01046	0.789	0.734	0.685	0.641	0.602	0.566
x1 = 0.01168	0.805	0.748	0.697	0.653	0.612	0.577
x1 = 0.01411	0.833	0.773	0.721	0.674	0.632	0.597
x1 = 0.01541	0.85	0.788	0.734	0.685	0.643	0.604
x1 = 0.01579	0.854	0.791	0.738	0.688	0.645	0.606
x1 = 0.01626	0.86	0.798	0.743	0.693	0.651	0.61
x1 = 0.01704	0.87	0.807	0.751	0.7	0.657	0.616
x1 = 0.01948	0.898	0.832	0.773	0.722	0.675	0.634
x1 = 0.01969	0.901	0.834	0.775	0.723	0.677	0.635
x1 = 0.02378	0.947	0.876	0.813	0.758	0.709	0.665
x1 = 0.02412	0.949	0.878	0.816	0.76	0.711	0.667
x1 = 0.02675	0.977	0.903	0.838	0.781	0.731	0.684
x1 = 0.02717	0.98	0.907	0.842	0.784	0.734	0.688
x1 = 0.03309	1.044	0.964	0.894	0.833	0.778	0.729
x1 = 0.03594	1.073	0.99	0.918	0.855	0.798	0.748
x1 = 0.03715	1.086	1.002	0.929	0.864	0.807	0.756
x1 = 0.0405	1.117	1.031	0.957	0.89	0.83	0.777
x1 = 0.04889	1.211	1.117	1.034	0.96	0.895	0.837

O=S(=O)([N-]S(=O)(=O)C(F)(F)F)C(F)(F)F.[Li+] + COC(=O)OC
298.1 K, 100 kPa, x1 = 0.333
Conditions	electrical conductivity [S/m]	viscosity [mPa·s]
–	0.12	53.7

O=S(=O)([N-]S(=O)(=O)C(F)(F)F)C(F)(F)F.[Li+] + COC(=O)OC + CCC1COC(=O)O1
Conditions	viscosity [mPa·s]
298.15 K, 100 kPa, x1 = 0.333, x2 = 0.667	53.7

O=S(=O)([N-]S(=O)(=O)C(F)(F)F)C(F)(F)F.[Li+] + COC(=O)OC + CCC(=O)OC
Conditions	viscosity [mPa·s]
298.15 K, 100 kPa, x1 = 0.333, x2 = 0.667	53.7

CCCCCCCCCCCCCC[P+](CCCCCC)(CCCCCC)CCCCCC.O=[N+]([O-])c1c[n-]cn1 + COCCOCCOCCOCCOC
viscosity [mPa·s], 100 kPa
Conditions	278.15 K	283.15 K	303.15 K
x2 = 0.189	1503	1036	–
x2 = 0.404	–	–	107

O=S(=O)([N-]S(=O)(=O)C(F)(F)F)C(F)(F)F.[Li+] + COCCOCCOCCOCCOC
Conditions	electrical conductivity [S/m]
293 K, 100 kPa, frequency 0.05 MHz, x1 = 0.143	0.235

CC(=O)[O-].CC[NH+](CC)CC + CS(C)=O
viscosity [mPa·s], 101 kPa
Conditions	298.15 K	303.15 K	308.15 K
x2 = 0	24.12	19.64	16.13
x2 = 0.0534	22.91	18.67	15.35
x2 = 0.0936	22.01	17.94	14.76
x2 = 0.1496	20.75	16.93	13.94
x2 = 0.1837	19.99	16.31	13.44
x2 = 0.2154	19.28	15.74	12.98
x2 = 0.2836	17.76	14.51	11.98
x2 = 0.3204	16.94	13.85	11.44
x2 = 0.3837	15.53	12.71	10.51
x2 = 0.4536	13.97	11.45	9.49
x2 = 0.5169	12.56	10.31	8.56
x2 = 0.5647	11.49	9.45	7.86
x2 = 0.6447	9.71	8.01	6.69
x2 = 0.7301	7.81	6.48	5.45
x2 = 0.7884	6.52	5.44	4.61
x2 = 0.839	5.41	4.55	3.89
x2 = 0.8848	4.42	3.76	3.24
x2 = 0.9121	3.84	3.29	2.86
x2 = 0.9393	3.26	2.82	2.48
x2 = 0.9649	2.72	2.39	2.13
x2 = 0.9764	2.48	2.2	1.98

CC(N)C(=O)[O-].COCCCCn1cc[n+](C)c1 + CS(C)=O
100 kPa
Conditions	viscosity [mPa·s]
288.15 K, x1 = 0.1996	11.74
288.15 K, x1 = 0.3012	22.04
288.15 K, x1 = 0.5996	96.5
288.15 K, x1 = 0.8997	304
293.15 K, x1 = 0.1996	11.35
293.15 K, x1 = 0.3012	19.11
293.15 K, x1 = 1	266
298.15 K, x1 = 0.1996	8.85
303.15 K, x1 = 0.1996	7.37
303.15 K, x1 = 0.5996	41.72
308.15 K, x1 = 0.3985	16.23
308.15 K, x1 = 0.5996	33.51
308.15 K, x1 = 0.6966	44.96
308.15 K, x1 = 0.7973	60.65
313.15 K, x1 = 0.6966	36.01
318.15 K, x1 = 0.1009	3.18
318.15 K, x1 = 0.4922	15.18
318.15 K, x1 = 0.5996	21.68
318.15 K, x1 = 0.7973	37.1

O=C(O)CC(O)(CC(=O)O)C(=O)O + C[N+](C)(C)Cc1ccccc1.[Cl-]
101 kPa, x2 = 0.5
Conditions	electrical conductivity [S/m]	viscosity [mPa·s]
293.15 K	3.3e-05	–
298.09 K	3.9e-05	–
303.11 K	0.000162	–
308.2 K	0.000519	–
312.91 K	–	237000
313.21 K	0.00111	–
318.06 K	0.001906	–
327.86 K	–	52100
328.14 K	0.005576	–
333.12 K	0.009475	–
